Data on 6 compounds can be found in ChEMBL document CHEMBL1158397, “Polycyclic cage structures as carrier molecules for neuroprotective non-steroidal anti-inflammatory drugs” (Eur J Med Chem, 2009).

The nature of data set [1]: Drug level in C57BL/6 mouse blood at 260.935 mg/kg, ip measured after 1 hr by LC-MS/MS analysis. The data set is classed as ADME, organism-based. On the set-up: dose 260.935 mg/kg, route intraperitoneal. Particulars: 260.94 mg/kg, read-out: Drug uptake.
A short description of data set [2]: Drug level in C57BL/6 mouse brain at 260.935 mg/kg, ip measured after 1 hr by LC-MS/MS analysis. Particulars: 260.94 mg/kg, read-out: Drug uptake. Type of data set: ADME, organism-based. Further details: dose 260.935 mg/kg, route intraperitoneal.
Data set [3] deals with Brain. Kind of data set: Antioxidant activity in Sprague-Dawley rat brain homogenate assessed as attenuation of toxin-induced lipid peroxidation at 1 mM by modified TBA assay. The data set is classed as functional, tissue-based.
Data set [4] is described as follows: Ratio of drug level in brain to blood in C57BL/6 mouse at 260.935 mg/kg, ip measured after 1 hr by LC-MS/MS analysis. As to conditions: 260.94 mg/kg. On the set-up: dose 260.935 mg/kg, route intraperitoneal. Type of data set: ADME, organism-based.
The test system of data set [5] is Brain. Put plainly: Drug level in C57BL/6 mouse brain assessed as ibuprofen at 246.883 mg/kg, ip measured after 1 hr by LC-MS/MS analysis. Type of data set: ADME, organism-based. Further details: dose 246.883 mg/kg, route intraperitoneal. As to conditions: in vivo, 246.88 mg/kg.
The nature of data set [6]: Ratio of drug level in brain to blood assessed as ibuprofen in C57BL/6 mouse at 246.883 mg/kg, ip measured after 1 hr by LC-MS/MS analysis. The data set is classed as ADME, organism-based. On the set-up: dose 246.883 mg/kg, route intraperitoneal. Particulars: 246.88 mg/kg.
Data set [7] relates to Blood. Kind of data set: Drug level in C57BL/6 mouse blood assessed as ibuprofen at 246.883 mg/kg, ip measured after 1 hr by LC-MS/MS analysis. On the set-up: dose 246.883 mg/kg, route intraperitoneal. The data set is classed as ADME, organism-based. Particulars: in vivo, 246.88 mg/kg.
Data set [8] deals with Brain. Kind of data set: Drug level in C57BL/6 mouse brain assessed as acetylsalicylic acid at 327.58 mg/kg, ip measured after 1 hr by LC-MS/MS analysis. Type of data set: ADME, organism-based. Further details: dose 327.58 mg/kg, route intraperitoneal. As to conditions: in vivo.
For data set [9], the system named is Blood. Kind of data set: Drug level in C57BL/6 mouse blood assessed as acetylsalicylic acid at 327.58 mg/kg, ip measured after 1 hr by LC-MS/MS analysis. The data set is classed as ADME, organism-based. On the set-up: dose 327.58 mg/kg, route intraperitoneal. As to conditions: in vivo.
A short description of data set [10]: Ratio of drug level in brain to blood assessed as acetylsalicylic acid in C57BL/6 mouse at 327.58 mg/kg, ip measured after 1 hr by LC-MS/MS analysis. Type of data set: ADME, organism-based. Further details: dose 327.58 mg/kg, route intraperitoneal.
The nature of data set [11]: Ratio of drug level in brain to blood assessed as ibuprofen in C57BL/6 mouse at 305.08 mg/kg, ip measured after 1 hr by LC-MS/MS analysis. On the set-up: dose 305.08 mg/kg, route intraperitoneal. The data set is classed as ADME, organism-based.
For data set [12], the system named is Blood. Put plainly: Drug level in C57BL/6 mouse blood assessed as ibuprofen at 305.08 mg/kg, ip measured after 1 hr by LC-MS/MS analysis. Type of data set: ADME, organism-based. Particulars: in vivo. Further details: dose 305.08 mg/kg, route intraperitoneal.
Data set [13] has as its system Brain. Kind of data set: Drug level in C57BL/6 mouse brain assessed as ibuprofen at 305.08 mg/kg, ip measured after 1 hr by LC-MS/MS analysis. The data set is classed as ADME, organism-based. On the set-up: dose 305.08 mg/kg, route intraperitoneal. Particulars: in vivo.
Data set [14] concerns Brain. Kind of data set: Drug level in C57BL/6 mouse brain assessed as total salicylate at 150 mg/kg, ip measured after 1 hr by LC-MS/MS analysis. The data set is classed as ADME, organism-based. Further details: dose 150 mg/kg, route intraperitoneal. As to conditions: in vivo.
The test system of data set [15] is Blood. Kind of data set: Drug level in C57BL/6 mouse blood assessed as total salicylate at 150 mg/kg, ip measured after 1 hr by LC-MS/MS analysis. Further details: dose 150 mg/kg, route intraperitoneal. Type of data set: ADME, organism-based. As to conditions: in vivo.
Data set [16] in a line: Ratio of drug level in brain to blood assessed as salicylic acid in C57BL/6 mouse at 150 mg/kg, ip measured after 1 hr by LC-MS/MS analysis. The data set is classed as ADME, organism-based. Further details: dose 150 mg/kg, route intraperitoneal.
A short description of data set [17]: Ratio of drug level in brain to blood in C57BL/6 mouse at 150 mg/kg, ip measured after 1 hr by LC-MS/MS analysis. Type of data set: ADME, organism-based. On the set-up: dose 150 mg/kg, route intraperitoneal.
Data set [18] is described as follows: Ratio of drug level in brain to blood assessed as total salicylate in C57BL/6 mouse at 150 mg/kg, ip measured after 1 hr by LC-MS/MS analysis. The data set is classed as ADME, organism-based. Further details: dose 150 mg/kg, route intraperitoneal.
A short description of data set [19]: Drug level in C57BL/6 mouse brain at 150 mg/kg, ip measured after 1 hr by LC-MS/MS analysis. Type of data set: ADME, organism-based. Further details: dose 150 mg/kg, route intraperitoneal. As to conditions: read-out: Drug uptake.
Data set [20] concerns Brain. Put plainly: Drug level in C57BL/6 mouse brain assessed as salicylic acid at 150 mg/kg, ip measured after 1 hr by LC-MS/MS analysis. Type of data set: ADME, organism-based. Particulars: in vivo. Further details: dose 150 mg/kg, route intraperitoneal.
In data set [21] the test system is Blood. Kind of data set: Drug level in C57BL/6 mouse blood assessed as salicylic acid at 150 mg/kg, ip measured after 1 hr by LC-MS/MS analysis. On the set-up: dose 150 mg/kg, route intraperitoneal. The data set is classed as ADME, organism-based. Particulars: in vivo.
Data set [22] can be described thus: Drug level in C57BL/6 mouse blood at 150 mg/kg, ip measured after 1 hr by LC-MS/MS analysis. Type of data set: ADME, organism-based. On the set-up: dose 150 mg/kg, route intraperitoneal. Particulars: read-out: Drug uptake.
The nature of data set [23]: Ratio of drug level in brain to blood assessed as acetylsalicylic acid in C57BL/6 mouse at 260.935 mg/kg, ip measured after 1 hr by LC-MS/MS analysis. Further details: dose 260.935 mg/kg, route intraperitoneal. As to conditions: 260.94 mg/kg. Type of data set: ADME, organism-based.
Data set [24] concerns Brain. Put plainly: Drug level in C57BL/6 mouse brain assessed as acetylsalicylic acid at 260.935 mg/kg, ip measured after 1 hr by LC-MS/MS analysis. Particulars: in vivo, 260.94 mg/kg. The data set is classed as ADME, organism-based. On the set-up: dose 260.935 mg/kg, route intraperitoneal.
In data set [25] the test system is Blood. Put plainly: Drug level in C57BL/6 mouse blood assessed as acetylsalicylic acid at 260.935 mg/kg, ip measured after 1 hr by LC-MS/MS analysis. Type of data set: ADME, organism-based. On the set-up: dose 260.935 mg/kg, route intraperitoneal. As to conditions: in vivo, 260.94 mg/kg.

Calls of active or inactive are those of the source. The calls are words filed in the database; no cut-off is given here.

As usually defined, the Kp is tissue or fluid exposure divided by exposure in the circulation. Regarding `CC(C)Cc1ccc(C(C)C(=O)O)cc1` (stereo not drawn) [IBUPROFEN], the concentration at 1 h in data set [1] stood at 61.4 ng/mL; in data set [2] it was 52.5 ng/mL. The outcome in data set [3] was Active. Besides, in data set [4], the Kp at 1 h was 0.9.

On to `CC(C)Cc1ccc(C(C)C(=O)NC23CC4CC(CC(C4)C2)C3)cc1` (stereo not drawn), for which the Drug uptake in data set [5] was 11.83 ng/mL; in data set [7], 30.45 ng/mL. Further, the result in [3] was Active. The Ratio in [6] is 0.39.

As to `CC(=O)Oc1ccccc1C(=O)OC12C3C4CC5C6C4C1C6C1(OCCCN12)C53` (stereo not drawn), the Drug uptake in data set [8] came out at 59.03 ng/mL; in data set [9], 44.11 ng/mL. Moreover, the Ratio in [10] was determined as 1.34. Moreover, the result in data set [3] was Active.

As to `CC(C)Cc1ccc(C(C)C(=O)OC23C4C5CC6C7C5C2C7C2(OCCCN23)C64)cc1` (stereo not drawn), the Ratio in [11] is recorded as 1.39. Also, in data set [3], the outcome was Active. In addition, the Drug uptake in [12] was found to be 40.28 ng/mL; in [13] it was 55.8 ng/mL.

Take `CC(=O)Oc1ccccc1C(=O)O` [ASPIRIN]: the Drug uptake was found to be 24.6 ng/mL in [14], 41.45 ng/mL in data set [15], 7.37 ng/mL in data set [20] and 6.95 ng/mL in data set [21]. For the same compound, the Ratio amounted to 1.06 in data set [16] and 0.59 in data set [18]. For the same compound, the Kp at 1 h in [17] was determined as 0.49. For the same compound, the concentration at 1 h in data set [19] is 22.5 ng/mL; in data set [22], 45.5 ng/mL. In addition, the result in data set [3] was Active.

Turning to `CC(=O)Oc1ccccc1C(=O)NC12CC3CC(CC(C3)C1)C2`, the Ratio in [23] is reported as 0.49. Further, the concentration at 1 h was determined as 17.4 ng/mL in data set [1] and 8.58 ng/mL in data set [2]. In addition, the values for the Drug uptake in data set [24] and in data set [25] were 6.81 ng/mL and 13.84 ng/mL, respectively. In addition, the result in data set [3] was Active. Besides, in [4], the Kp at 1 h was 0.49.
